Results as given in patent publication US11285189B2, “Compositions and uses of locally-applied antimicrobial synthetic cationic polypeptide(s) with enhanced performance and safety” (priority 2017, dated 2022).

Key:
[1] = Surface tension, Du Nouy ring; type: physicochemical; settings: samples at 0.1 mM, room temperature
Procedure: Samples were prepared at 0.1 mM and assessed using TA.XT2 Texture Analyzer with a 500 g load cell, 5 cm diameter Du Nouy ring and probe speed of 0.2 mm/s at room temperature.
Surface tension of various preparations of synthetic cationic polypeptide(s) in water. Samples were prepared at 0.1 mM and assessed using TA.XT2 Texture Analyzer with a 500 g load cell, 5 cm diameter Du Nouy ring and probe speed of 0.2 mm/s at room temperature.
Surface tension: effect of acetic acid as an additive.

[2] = Kinematic viscosity, glass capillary (Ubbelohde) viscometers, 37° C.; type: physicochemical; settings: 1 and 2 wt %
Procedure: FIGS. 13A-B. (a) Kinematic viscosity of various synthetic cationic polypeptide(s) in water at 1 wt % and measured using glass capillary viscometers (Ubbelohde viscometers) at a temperature of 37° C. (b) Kinematic viscosity of KrL-100/5.7 (lot BAC02) vs. bovine serum albumin; water is provided for reference.
FIG. 14. Kinematic viscosity of synthetic cationic polypeptide(s) with a lysine-L-leucine block sequence arrangement (KL) in water at 0.5 wt % and measured using glass capillary viscometers (Ubbelohde viscometers) at a temperature of 37° C.
FIG. 13A depicts kinematic viscosity values of various synthetic cationic polypeptide(s) in water at 1 wt % as measured using glass capillary viscometers (Ubbelohde viscometers). […] Albumin is an abundant blood protein and has a molecular weight of approximately 66.5 kDa and total chain length of approximately 583 amino acids units.
The latter has a longer overall chain length, a similar sized hydrophobic block, but a different composition of hydrophobic amino acid units (racemic D,L-leucine vs. enantiopure L-leucine).

| Compound | effect on surface tension of water [1] | effect on viscosity of aqueous preparations [2] |
| --- | --- | --- |
| [H]/N=C(\N/C(=N/[H])NCCCCCCNC(=N)NC(=N)Nc1ccc(Cl)cc1)Nc1ccc(Cl)cc1 [chlorhexidine, chlorhexidine gluconate] | little or no effect | – |
| bovine serum albumin: abundant blood protein, approximately 66.5 kDa, approximately 583 amino acid units | – | little, if any effect on viscosity |
| polyhexamethylene biguanide [PHMB] | little or no effect | – |
